Values of other authors, collected in US6566543B2, “2-arachidonylglycerol (2-AG)-an inhibitor of tumor necrosis factor-α and neuroprotector of brain in closed head injury” (Yissum Research Development Company of The Hebrew …, priority 2000, dated 2003).

Key:
nitric oxide release = conditions: astrocytes
TNF-α = conditions: astrocytes
cannabinoid receptors = conditions: previously shown, Ben-Shabat et al., 1998

SMILES	nitric oxide release (nitric oxide release)	inhibition of TNF-α production (TNF-α)	activity in numerous in vivo and in vitro assays (including binding to the cannabinoid receptors) (cannabinoid receptors)
CCCCC/C=C\C/C=C\C/C=C\C/C=C\CCCC(=O)NCCO [Anandamide, arachidonylethanolamide]	blocked nitric oxide release	relatively modest	
CCCCCCCCCCCCCCCC(=O)OC(CO)CO [2-PalmG, 2-palmitoylglycerol]			inactive
CCCCC/C=C\C/C=C\CCCCCCCC(=O)OC(CO)CO [2-LinoG, 2-linoleoylglycerol]			inactive
